{"source": "patent US5747239A", "about": "“Synthetic peptides specific for the detection of antibodies to HCV, diagnosis of HCV infection and preventions thereof as vaccines” (United Biomedical, Inc., priority 1994, dated 1998)", "molecules": {"B1": {"name": "STIPKPQRKTKRNTNRRPQDVKFPGGGQIVGGVYLLPRRGPRLGVRATRKTSERSQPRGRR (peptide)", "peptide": "STIPKPQRKTKRNTNRRPQDVKFPGGGQIVGGVYLLPRRGPRLGVRATRKTSERSQPRGRR"}}, "type_in_all_cases": "binding, human", "key": {"antibodies to HCV [1]": {"system": "antibodies to HCV", "test": "Peptide ELISA for relative immunoreactivity, 8 member HCV serum panel (Panel I)", "set-up": "relative immunoreactivity value: concentration or dose not given beside the values", "conditions": "for % IP: NS-5 peptides (Table 12), pep11 as a standard", "experimental": "As an example to illustrate how relative (%) immunoreactivity for HCV synthetic peptides is measured, wells of 96-well plates are coated for 1 hour at 37° C., with each of the following peptides: IIH, V, VIIIE and pep11 at 5 ug/mL at 100 uL per well in 10 mM NaHCO3 buffer, pH 9.5. The peptide coated wells were then incubated with 250 uL of 3% by weight of gelatin in PBS in 37° C. for 1 hour to block non-specificprotein binding sites, followed by three washes with PBS containing 0.05% by volume of TWEEN 20 and then dried. The test specimens containing a panel of eight well-characterized HCV antibody positive patient sera were diluted with PBS containing 20% by volume normal goat serum, 1% by weight gelatin and 0.05% by volume TWEEN 20 at dilutions of 1:20 volume to volume, respectively. 200 uL of the diluted specimens were added to each of the wells and allowed to react for 15 minutes at 37° C.\nThe wells were then washed six times with 0.05% by volume TWEEN 20 in PBS in order to remove unbound antibodies. Horseradish peroxidase conjugated goat anti-human IgG was used as a second antibody tracer to bind with the HCV antibody-peptide antigen complex formed in positive wells. 100 uL of peroxidase labeled goat anti-human IgG at a dilution of 1:1800 in 1% by volume normal goat serum, 0.05% by volume TWEEN 20 in PBS was added to each well and incubated at 37° C. for another 15 minutes.\nThe wells were washed six times with 0.05% by volume TWEEN 20 PBS to remove unbound antibody and reacted with 100 uL of the substrate mixture containing 0.04% by weight orthophenylenediamine (OPD) and 0.12% by volume hydrogen peroxide in sodium citrate buffer, pH 5.0.\nThis substrate mixture was used to detect the peroxidase label by forming a colored product. Reactions were stopped by the addition of 100 uL of 1.0M H2 SO4 and the A492 mm measured. Results of relative immunoreactivity for each of the peptides obtained from this study are shown in Table A using peptide II H as the reference."}, "antibodies to HCV [2]": {"system": "antibodies to HCV", "test": "NS-5 peptide ELISA, group of 5 HCV positive sera", "conditions": "for % Relative Immunoreactivity: NS-5 peptides, 5 HCV positive sera, Pep5 = 100", "experimental": "Wells of 96-well plates were coated for 1 hour at 37° C. with each of the three peptides derived from the NS-5 region of HCV (designated as pep4, pep5 and pep6)."}, "antibodies to HCV [3]": {"system": "antibodies to HCV", "test": "EIA of pep3 after different extraction conditions following HF cleavage", "conditions": "for % Decrease: Pep3' versus Pep3", "description": "Peptide extraction conditions after HF cleavage were altered to test for their effect on peptide immunopotency after HF cleavage. Pep3 (or 279A) was extracted with acetic acid at pH 2, whereas pep3' was extracted with ammonium bicarbonate at pH 8."}, "[4]": {"system": "antibodies to peptide VIIIE", "test": "Presence of antibodies to peptide VIIIE in sera"}}}
{"molecule": "DAELIEANLLWRQEMGGNITRVESENKVVILDSFDPLVAEEDER [Pep5]", "values": [{"measurement": "% IP", "setting": "antibodies to HCV [1]; Panel I", "result": 47.6, "unit": "%"}, {"measurement": "% Relative Immunoreactivity", "setting": "antibodies to HCV [2]", "result": 100.0, "unit": "%"}, {"measurement": "EIA reading per sample", "setting": "antibodies to HCV [2]; Sample No. 1", "result": 2.942}, {"measurement": "EIA reading per sample", "setting": "antibodies to HCV [2]; Sample No. 2", "result": 0.370}, {"measurement": "EIA reading per sample", "setting": "antibodies to HCV [2]; Sample No. 3", "result": 0.616}, {"measurement": "EIA reading per sample", "setting": "antibodies to HCV [2]; Sample No. 4", "result": 1.316}, {"measurement": "EIA reading per sample", "setting": "antibodies to HCV [2]; Sample No. 5", "result": 1.783}]}
{"molecule": "DPSHITAEAAGRRLARGSPPSVASSSASQLSAPSLKATCTANHDSP [Pep4]", "values": [{"measurement": "% IP", "setting": "antibodies to HCV [1]; Panel I", "result": 17.1, "unit": "%"}, {"measurement": "% Relative Immunoreactivity", "setting": "antibodies to HCV [2]", "result": 28.6, "unit": "%"}, {"measurement": "EIA reading per sample", "setting": "antibodies to HCV [2]; Sample No. 1", "result": 0.468}, {"measurement": "EIA reading per sample", "setting": "antibodies to HCV [2]; Sample No. 2", "result": 0.659}, {"measurement": "EIA reading per sample", "setting": "antibodies to HCV [2]; Sample No. 3", "result": 0.675}, {"measurement": "EIA reading per sample", "setting": "antibodies to HCV [2]; Sample No. 4", "result": 0.063}, {"measurement": "EIA reading per sample", "setting": "antibodies to HCV [2]; Sample No. 5", "result": 0.144}]}
{"molecule": "Pep3': pep3 (279A) sequence extracted with ammonium bicarbonate at pH 8 after HF cleavage (GCSGGAYDIIICDECHSTDATSILGIGTVLDQAETAG)", "values": [{"measurement": "A492 nm (mA) by EIA", "setting": "antibodies to HCV [3]; NRC: Negative Control", "result": 1, "unit": "mA"}, {"measurement": "% Decrease", "setting": "antibodies to HCV [3]; SRC", "result": 77.6, "unit": "%"}, {"measurement": "% Decrease", "setting": "antibodies to HCV [3]; WRC", "result": 89.6, "unit": "%"}, {"measurement": "% Decrease", "setting": "antibodies to HCV [3]; sample #1", "result": 78.8, "unit": "%"}, {"measurement": "% Decrease", "setting": "antibodies to HCV [3]; sample #2", "result": 90.0, "unit": "%"}, {"measurement": "% Decrease", "setting": "antibodies to HCV [3]; sample #3", "result": 91.5, "unit": "%"}, {"measurement": "% Decrease", "setting": "antibodies to HCV [3]; sample #4", "result": 99.3, "unit": "%"}, {"measurement": "% Decrease", "setting": "antibodies to HCV [3]; sample #5", "result": 88.0, "unit": "%"}, {"measurement": "share of the panel reactive", "setting": "antibodies to HCV [1]; Panel I", "result": "half of the panel is reactive"}, {"measurement": "relative immunoreactivity value", "setting": "antibodies to HCV [1]; Panel I, compared with peptide VIIIE", "result": 23.9, "unit": "%"}, {"measurement": "absorbances of some additional reactive samples", "setting": "antibodies to HCV [1]; additional reactive samples", "result": "> 2000", "unit": "mA"}]}
{"molecule": "B1", "values": [{"measurement": "antibodies to the peptide present in", "setting": "[4]; HBsAg positive individuals", "result": "15-20%"}, {"measurement": "antibodies to the peptide present in", "setting": "[4]; normal controls", "result": "1-2%"}, {"measurement": "A492 nm", "setting": "antibodies to HCV [1]; Panel I serum No. 1, peptide coated at 5 ug/mL, serum 1:20", "result": 2.745}, {"measurement": "A492 nm", "setting": "antibodies to HCV [1]; Panel I serum No. 2", "result": 2.208}, {"measurement": "A492 nm", "setting": "antibodies to HCV [1]; Panel I serum No. 3", "result": 2.468}, {"measurement": "A492 nm", "setting": "antibodies to HCV [1]; Panel I serum No. 4", "result": 3.032}, {"measurement": "A492 nm", "setting": "antibodies to HCV [1]; Panel I serum No. 5", "result": 0.054}, {"measurement": "A492 nm", "setting": "antibodies to HCV [1]; Panel I serum No. 6", "result": 2.108}, {"measurement": "A492 nm", "setting": "antibodies to HCV [1]; Panel I serum No. 7", "result": 0.730}, {"measurement": "A492 nm", "setting": "antibodies to HCV [1]; Panel I serum No. 8", "result": 3.006}, {"measurement": "samples of the HCV serum panel that reacted", "setting": "antibodies to HCV [1]; Panel I, 8 samples", "result": "7 out of 8"}, {"measurement": "% Relative Immunoreactivity", "setting": "antibodies to HCV [1]; Panel I, peptide IIH as the reference", "result": 98, "unit": "%"}, {"measurement": "% Relative Immunoreactivity", "setting": "antibodies to HCV [1]; capsid peptides, Panel I, relative to VIIIE, coated at 5, 1 and 0.2 μg/mL", "result": 100.0, "unit": "%"}, {"measurement": "A492 nm Total", "setting": "antibodies to HCV [1]; sum over Panel I No. 1 to 8", "result": 16.351}]}
